Measurements as given in patent publication US20230085307A1, “PYRIDAZINONE COMPOUND AND HERBICIDE” (NISSAN CHEMICAL CORPORATION, priority 2019, published 2023).

Key:
[1] = test system: late watergrass; experiment: Test Example 2: herbicidal activity, application during weed generation under submerged conditions (Table 17, symbol A); format: in vivo, late watergrass (Echinochloa oryzicola); settings: application during weed generation, submerged conditions
Summary of the method: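 Herbicide emulsion, diluted with water to the chosen amount, is applied onto 4 cm floodwater over alluvial soil where the weeds were co-sown and raised at 25–30° C. Application timing: 1–2 leaves. Assessment: three weeks afterwards.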

[2] = test system: barnyard grass; experiment: Test Example 3: herbicidal effect by foliage application, Wagner pot (Table 18, symbol H); format: in vivo, barnyard grass (Echinochloa crus-galli)
Summary of the method: (§1)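 Plants were sown in alluvial soil held under 0.1–0.5 cm standing water and grown 14 days in a greenhouse at 25–30 °C. An emulsifiable formulation, water-diluted to the set dose, was then sprayed onto the foliage, and effects were scored three weeks later using previously defined criteria.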

[3] = test system: Chinese sprangletop; experiment: Test Example 3: herbicidal effect by foliage application, Wagner pot (Table 18, symbol D); format: in vivo, chinese sprangletop (Leptochloa chinensis)
Summary of the method: as §1

[4] = test system: southern crabgrass; experiment: Test Example 4: herbicidal effect by soil treatment (Table 19, symbol F); format: in vivo, southern crabgrass (Digitaria ciliaris); settings: for herbicidal effect rating, F: southern crabgrass: 320 g/ha
Summary of the method: (§2)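 Three weeks of greenhouse growth at 25° C. to 30° C. followed a uniform surface spray of water-diluted emulsion at a predetermined herbicide amount. Seeds had been sown beforehand under about 1.5 cm of sterilized diluvial soil. Grading followed criteria set out in an earlier test.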

[5] = test system: barnyard grass; experiment: Test Example 4: herbicidal effect by soil treatment (Table 19, symbol H); format: in vivo, barnyard grass (Echinochloa crus-galli); settings: for herbicidal effect rating, H: barnyard grass: 320 g/ha
Summary of the method: as §2

[6] = test system: blackgrass; experiment: Test Example 4: herbicidal effect by soil treatment (Table 19, symbol J); format: in vivo, blackgrass (Alopecurus myosuroides); settings: for herbicidal effect rating, J: blackgrass: 320 g/ha
Summary of the method: as §2

[7] = test system: redroot pigweed; experiment: Test Example 4: herbicidal effect by soil treatment (Table 19, symbol N); format: in vivo, redroot pigweed (Amaranthus retroflexus); settings: for herbicidal effect rating, N: redroot pigweed: 320 g/ha
Summary of the method: as §2

[8] = test system: lambsquarters; experiment: Test Example 4: herbicidal effect by soil treatment (Table 19, symbol O); format: in vivo, lambsquarters (Chenopodium album); settings: for herbicidal effect rating, O: lambsquarters: 320 g/ha
Summary of the method: as §2

[9] = test system: chickweed; experiment: Test Example 4: herbicidal effect by soil treatment (Table 19, symbol P); format: in vivo, common chickweed (Stellaria media); settings: for herbicidal effect rating, P: chickweed: 320 g/ha
Summary of the method: as §2

[10] = test system: barnyard grass; experiment: Test Example 5: herbicidal effect by foliage application, plastic box (Table 20, symbol H); format: in vivo, barnyard grass (Echinochloa crus-galli); settings: foliage application; for herbicidal effect on H: barnyard grass: 320 g/ha, evaluated three weeks after application
Summary of the method: (§3)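 Plants sown in sterilized diluvial soil and grown 14 days in a greenhouse at 25° C to 30° C, then sprayed on the foliage with the compound's emulsion diluted in water to a predetermined herbicide amount. Injury to weeds and crops scored three weeks after application on a visual rating scale.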

[11] = test system: wild oat; experiment: Test Example 5: herbicidal effect by foliage application, plastic box (Table 20, symbol I); format: in vivo, wild oat (Avena fatua); settings: foliage application; for herbicidal effect on I: wild oat: 320 g/ha, evaluated three weeks after application
Summary of the method: as §3

[12] = test system: blackgrass; experiment: Test Example 5: herbicidal effect by foliage application, plastic box (Table 20, symbol J); format: in vivo, blackgrass (Alopecurus myosuroides); settings: foliage application; for herbicidal effect on J: blackgrass: 320 g/ha, evaluated three weeks after application
Summary of the method: as §3

[13] = test system: Italian ryegrass; experiment: Test Example 5: herbicidal effect by foliage application, plastic box (Table 20, symbol K); format: in vivo, Italian ryegrass (Lolium multiflorum); settings: foliage application; for herbicidal effect on K: Italian ryegrass: 320 g/ha, evaluated three weeks after application
Summary of the method: as §3

[14] = test system: velvetleaf; experiment: Test Example 5: herbicidal effect by foliage application, plastic box (Table 20, symbol M); format: in vivo, velvetleaf (Abutilon theophrasti); settings: foliage application; for herbicidal effect on M: velvetleaf: 320 g/ha, evaluated three weeks after application
Summary of the method: as §3

[15] = test system: redroot pigweed; experiment: Test Example 5: herbicidal effect by foliage application, plastic box (Table 20, symbol N); format: in vivo, redroot pigweed (Amaranthus retroflexus); settings: foliage application; for herbicidal effect on N: redroot pigweed: 320 g/ha, evaluated three weeks after application
Summary of the method: as §3

[16] = test system: persian speedwell; experiment: Test Example 5: herbicidal effect by foliage application, plastic box (Table 20, symbol R); format: in vivo, Persian speedwell (Veronica persica); settings: foliage application; for herbicidal effect on R: persian speedwell: 320 g/ha, evaluated three weeks after application
Summary of the method: as §3

[17] = AAH 368 g/ha, three weeks after application

| Structure (SMILES) | herbicidal effect rating, A: late watergrass ([1]; AAH 320 g/ha) | herbicidal effect on H (barnyard grass), rating 0-5 ([2]; 320 g/ha) | herbicidal effect on D (Chinese sprangletop), rating 0-5 ([3]; 320 g/ha) | herbicidal effect rating, F: southern crabgrass [4] | herbicidal effect rating, H: barnyard grass [5] | herbicidal effect rating, J: blackgrass [6] | herbicidal effect rating, N: redroot pigweed [7] | herbicidal effect rating, O: lambsquarters [8] | herbicidal effect rating, P: chickweed [9] | herbicidal effect on H: barnyard grass [10] | herbicidal effect on I: wild oat [11] | herbicidal effect on J: blackgrass [12] | herbicidal effect on K: Italian ryegrass [13] | herbicidal effect on M: velvetleaf [14] | herbicidal effect on N: redroot pigweed [15] | herbicidal effect on R: persian speedwell [16] | also measured |
| --- | --- | --- | --- | --- | --- | --- | --- | --- | --- | --- | --- | --- | --- | --- | --- | --- | --- |
| COCCOc1ccc(-c2sc3ccccc3c2-c2c(O)c(C)nn(C)c2=O)cc1 [1-148] | – | – | – | – | – | – | – | – | – | – | – | – | – | – | – | – | herbicidal effect rating, A: late watergrass ([1]; AAH 368 g/ha): 3 (Herbicidal rate of 40% or more and less than 70%); herbicidal effect on H (barnyard grass), rating 0-5 ([2]; 368 g/ha): 5 (Herbicidal rate of 90% or more (almost completely withered)); herbicidal effect on D (Chinese sprangletop), rating 0-5 ([3]; 368 g/ha): 4 (Herbicidal rate of 70% or more and less than 90%); F: southern crabgrass, herbicidal effect rating ([4]; AAH 368 g/ha): 4 (Herbicidal rate of 70% or more and less than 90%); H: barnyard grass, herbicidal effect rating ([5]; AAH 368 g/ha): 5 (Herbicidal rate of 90% or more (almost completely withered)); J: blackgrass, herbicidal effect rating ([6]; AAH 368 g/ha): 1 (Herbicidal rate of 5% or more and less than 20%); N: redroot pigweed, herbicidal effect rating ([7]; AAH 368 g/ha): 5 (Herbicidal rate of 90% or more (almost completely withered)); O: lambsquarters, herbicidal effect rating ([8]; AAH 368 g/ha): 5 (Herbicidal rate of 90% or more (almost completely withered)); P: chickweed, herbicidal effect rating ([9]; AAH 368 g/ha): 5 (Herbicidal rate of 90% or more (almost completely withered)); H: barnyard grass, herbicidal effect [10, 17]: 5 (Herbicidal rate of 90% or more (almost completely withered)); I: wild oat, herbicidal effect [11, 17]: 4 (Herbicidal rate of 70% or more and less than 90%); J: blackgrass, herbicidal effect [12, 17]: 4 (Herbicidal rate of 70% or more and less than 90%); K: Italian ryegrass, herbicidal effect [13, 17]: 5 (Herbicidal rate of 90% or more (almost completely withered)); M: velvetleaf, herbicidal effect [14, 17]: 5 (Herbicidal rate of 90% or more (almost completely withered)); N: redroot pigweed, herbicidal effect [15, 17]: 5 (Herbicidal rate of 90% or more (almost completely withered)); R: persian speedwell, herbicidal effect [16, 17]: 5 (Herbicidal rate of 90% or more (almost completely withered)) |
| Cc1nn(C)c(=O)c(-c2c(-c3ccc(OCC(F)(F)F)cc3)sc3ccc(F)cc23)c1O [2-049] | 0 (Herbicidal rate of 5% or less (almost no effect)) | 5 (Herbicidal rate of 90% or more (almost completely withered)) | 5 (Herbicidal rate of 90% or more (almost completely withered)) | 4 (Herbicidal rate of 70% or more and less than 90%) | 5 (Herbicidal rate of 90% or more (almost completely withered)) | 4 (Herbicidal rate of 70% or more and less than 90%) | 5 (Herbicidal rate of 90% or more (almost completely withered)) | 5 (Herbicidal rate of 90% or more (almost completely withered)) | 5 (Herbicidal rate of 90% or more (almost completely withered)) | 5 (Herbicidal rate of 90% or more (almost completely withered)) | 5 (Herbicidal rate of 90% or more (almost completely withered)) | 5 (Herbicidal rate of 90% or more (almost completely withered)) | 5 (Herbicidal rate of 90% or more (almost completely withered)) | 5 (Herbicidal rate of 90% or more (almost completely withered)) | 5 (Herbicidal rate of 90% or more (almost completely withered)) | 5 (Herbicidal rate of 90% or more (almost completely withered)) | – |
| C=CCOc1ccc(-c2sc3ccc(F)cc3c2-c2c(O)c(C)nn(C)c2=O)cc1 [2-051] | 0 (Herbicidal rate of 5% or less (almost no effect)) | 5 (Herbicidal rate of 90% or more (almost completely withered)) | 5 (Herbicidal rate of 90% or more (almost completely withered)) | 5 (Herbicidal rate of 90% or more (almost completely withered)) | 4 (Herbicidal rate of 70% or more and less than 90%) | 0 (Herbicidal rate of 5% or less (almost no effect)) | 5 (Herbicidal rate of 90% or more (almost completely withered)) | 5 (Herbicidal rate of 90% or more (almost completely withered)) | 1 (Herbicidal rate of 5% or more and less than 20%) | 5 (Herbicidal rate of 90% or more (almost completely withered)) | 4 (Herbicidal rate of 70% or more and less than 90%) | 5 (Herbicidal rate of 90% or more (almost completely withered)) | 4 (Herbicidal rate of 70% or more and less than 90%) | 4 (Herbicidal rate of 70% or more and less than 90%) | 5 (Herbicidal rate of 90% or more (almost completely withered)) | 5 (Herbicidal rate of 90% or more (almost completely withered)) | – |
| C#CCOc1ccc(-c2sc3ccc(F)cc3c2-c2c(O)c(C)nn(C)c2=O)cc1 [2-053] | 0 (Herbicidal rate of 5% or less (almost no effect)) | 5 (Herbicidal rate of 90% or more (almost completely withered)) | 5 (Herbicidal rate of 90% or more (almost completely withered)) | 0 (Herbicidal rate of 5% or less (almost no effect)) | 2 (Herbicidal rate of 20% or more and less than 40%) | 0 (Herbicidal rate of 5% or less (almost no effect)) | 0 (Herbicidal rate of 5% or less (almost no effect)) | 3 (Herbicidal rate of 40% or more and less than 70%) | 1 (Herbicidal rate of 5% or more and less than 20%) | 5 (Herbicidal rate of 90% or more (almost completely withered)) | 2 (Herbicidal rate of 20% or more and less than 40%) | 4 (Herbicidal rate of 70% or more and less than 90%) | 5 (Herbicidal rate of 90% or more (almost completely withered)) | 5 (Herbicidal rate of 90% or more (almost completely withered)) | 5 (Herbicidal rate of 90% or more (almost completely withered)) | 5 (Herbicidal rate of 90% or more (almost completely withered)) | – |
| CSc1ccc(-c2sc3ccc(F)cc3c2-c2c(O)c(C)nn(C)c2=O)cc1 [2-076] | 2 (Herbicidal rate of 20% or more and less than 40%) | 5 (Herbicidal rate of 90% or more (almost completely withered)) | 5 (Herbicidal rate of 90% or more (almost completely withered)) | 3 (Herbicidal rate of 40% or more and less than 70%) | 3 (Herbicidal rate of 40% or more and less than 70%) | 0 (Herbicidal rate of 5% or less (almost no effect)) | 5 (Herbicidal rate of 90% or more (almost completely withered)) | 3 (Herbicidal rate of 40% or more and less than 70%) | 4 (Herbicidal rate of 70% or more and less than 90%) | 5 (Herbicidal rate of 90% or more (almost completely withered)) | 5 (Herbicidal rate of 90% or more (almost completely withered)) | 4 (Herbicidal rate of 70% or more and less than 90%) | 4 (Herbicidal rate of 70% or more and less than 90%) | 5 (Herbicidal rate of 90% or more (almost completely withered)) | 5 (Herbicidal rate of 90% or more (almost completely withered)) | 5 (Herbicidal rate of 90% or more (almost completely withered)) | – |
